Results reported in PMC5719405, “Sex-related pharmacokinetic differences and mechanisms of metapristone (RU486 metabolite)” (Scientific Reports, 2017).
Like-named read-outs stand apart in the source and are kept apart here.

Tests used:
[1] = Single-dose pharmacokinetics of metapristone in rats (p.o. and i.v.), non-compartmental analysis; assay type: in vivo, Sprague Dawley (SD) rats; conditions: for MRT last: read-out: MRT (0-t)
Protocol: (§1) For pharmacokinetic study, rats were fasted overnight with free access to water using procedures reported previously. Ninety-six SD rats (forty-eight males and forty-eight females) were randomly divided into […] single-dose groups. Rats (six animals/sex/dose) were given a single oral dose of 22.5, 45 and 90 mg/kg metapristone (in soybean oil solution) by intragastric administration or 10 mg/kg metapristone by intravenous bolus injection. Rat blood samples (0.25 mL) were collected from the ocular vein into heparinized tubes prior to and at 0 (before administration), 0.5, 1.0, 1.5, 2.0, 4.0, 6.0, 8.0, 12, 24, 36 and 48 h post-dosing in female rats or 0.5, 1.0, 1.5, 2.0, 4.0, 6.0, 8.0, 12, 24, 30 and 36 h post-dosing in male rats. In the repeated dose study twenty-four rats (six animals/sex/dose) received the same dosing regimen at 45 mg/kg metapristone for 10 days. Blood samples were collected after oral administration on day 1 and 10 at T max. The samples were stored at −80 °C until analysis. Beagle dogs (three animals/sex/dose) were dosed by gavage at 5.62, 11.25, 22.5 mg/kg metapristone (in soybean oil solution). Dog blood (0.25 mL) was withdrawn from the jugular vein at 0.5, 1.0, 2.0, 4.0, 6.0, 8.0, 10, 12, 24 and 48 h after a single oral administration.
The plasma samples obtained by centrifugation at 4000 g for 10 min and stored at −80 °Cuntil analysis. To each 100 µL of plasma sample, 50 µL of internal standard solution were added. Metapristone was then separated and analyzed by the LC/MS/MS method according to the previously described procedures. Peak area ratios of metapristone to the internal standard were plotted against theoretical concentrations. The maximum plasma concentration (C max), the time to reach C max (T max) were determined directly from experimental data. The other pharmacokinetic parameters such as elimination half-life (t 1/2), and mean residence time (MRT) were calculated by using the non-compartmental pharmacokinetics data analysis software of DAS version 3.2 (Bio Guider Co., Shanghai, China). The area under the plasma concentration-time curve from zero to infinity was calculated by using the linear trapezoidal rule with extrapolation to infinity with terminal constant eliminate rate (k e). Bioavailability was calculated as (AUCp.o./AUCi.v.) x (dosei.v./ dosep.o.) 100% as we previously described.

[2] = Repeated 10-day oral dosing, accumulation of metapristone in blood; assay type: in vivo; conditions: rats, 45 mg/kg/day p.o. for 10 days, 6 h post dosing
Protocol: In order to determine whether metapristone accumulated in blood over a long period of multiple dose administration, metapristone levels in blood were monitored at 6 h post dosing on day 1 and 10 during a consecutive 10-day oral dosing period with metapristone at 45 mg/kg/day.
as §1, with “Beagle dogs (three animals/sex/dose) were dosed by gavage at 5.62, 11.25, 22.5 mg/kg metapristone (in soybean oil solution). Dog blood (0.25 mL) was withdrawn from the jugular vein at 0.5, 1.0, 2.0, 4.0, 6.0, 8.0, 10, 12, 24 and 48 h after a single oral administration.” left out

[3] = In vitro microsomal metabolism of metapristone; assay type: in vitro ADME, rat; conditions: for metapristone remained: 2 h; for degradation of metapristone: 37 °C, 1 h
Protocol: The microsomal assay was similar to that described previously. Briefly, metapristone (6, 9, 13.5 µM) was incubated with male and female at liver microsomes, respectively, in an NADPH-generating system containing 1 mM NADP, 10 mM glucose-6-phosphate, 1 U/mL glucose-6-phosphate dehydrogenase and 4 mM MgCl2 in 100 mM potassium phosphate buffer (pH 7.4). Reaction mixtures were prepared in duplicate and were pre-incubated for 5 min at 37 °C. The actions were then initiated by the addition of NADPH solution. The final volume of each reaction mixture was 200 µL. Negative control reactions were prepared by incubating mixtures that excluded metapristone from the mixture. For negative control incubation where microsomes were excluded, they were added back to the reaction mixture after quenching with methanol. Samples were removed at 0, 40, 60, 80,100, 120 and 150 min, and vortex-mixed with cold ethyl acetate to stop the reaction. After centrifugation, a portion of each resulting supernatant was analyzed by mass spectrometry for unchanged metapristone.

HT-29 cells = conditions: cited from earlier work
[4] = Sprague-Dawley, rat, plasma, iv, female rats, i.v. 10 mg/kg
[5] = Sprague-Dawley, rat, plasma, iv, male rats, i.v. 10 mg/kg
[6] = Sprague-Dawley, rat, plasma, po, female rats, p.o. 22.5 mg/kg
[7] = Sprague-Dawley, rat, plasma, po, female rats, p.o. 45 mg/kg
[8] = Sprague-Dawley, rat, plasma, po, female rats, p.o. 90 mg/kg
[9] = Sprague-Dawley, rat, plasma, po, male rats, p.o. 22.5 mg/kg
[10] = Sprague-Dawley, rat, plasma, po, male rats, p.o. 45 mg/kg
[11] = Sprague-Dawley, rat, plasma, po, male rats, p.o. 90 mg/kg

SMILES: CC#C[C@]1(O)CC[C@H]2[C@@H]3CCC4=CC(=O)CCC4=C3[C@@H](c3ccc(NC)cc3)C[C@@]21C [metapristone, N-monodemethyl mifepristone]
- AUC(0-inf) [1, 4]: 9810 ± 2340 ng·h/mL
- AUC(0-t) [1, 4]: 9750 ± 2320 ng·h/mL
- Cmax [1, 4]: 6050 ± 670 ng/mL
- half-life [1, 4]: 5.18 ± 3.41 h
- MRT last [1, 4]: 1.68 ± 0.72 h
- AUC(0-inf) [1, 5]: 5460 ± 1150 ng·h/mL
- AUC(0-t) [1, 5]: 5520 ± 1150 ng·h/mL
- Cmax [1, 5]: 4050 ± 250 ng/mL
- half-life [1, 5]: 9.45 ± 4.99 h
- MRT last [1, 5]: 1.56 ± 0.41 h
- AUC(0-inf) [1, 6]: 4230 ± 1640 ng·h/mL
- AUC(0-t) [1, 6]: 4050 ± 1620 ng·h/mL
- Cmax [1, 6]: 270 ± 50 ng/mL
- half-life [1, 6]: 10.8 ± 3.2 h
- bioavailability ([1]; Sprague-Dawley, rat, plasma, po, female rats, p.o. 22.5 mg/kg, read-out: F): 18.5%
- MRT last [1, 6]: 14.4 ± 5.65 h
- Tmax ([1]; Sprague-Dawley, rat, plasma, po, female rats, p.o. 22.5 mg/kg, read-out: T max): 9 ± 7.5 h
- Vd/F ([1]; Sprague-Dawley, rat, plasma, po, female rats, p.o. 22.5 mg/kg, read-out: V d /F): 77.3 ± 36 L/kg
- AUC(0-inf) [1, 7]: 11300 ± 3170 ng·h/mL
- AUC(0-t) [1, 7]: 9630 ± 4540 ng·h/mL
- Cmax [1, 7]: 650 ± 220 ng/mL
- half-life [1, 7]: 10.7 ± 3.71 h
- bioavailability ([1]; Sprague-Dawley, rat, plasma, po, female rats, p.o. 45 mg/kg, read-out: F): 22%
- MRT last [1, 7]: 13.7 ± 6.91 h
- Tmax ([1]; Sprague-Dawley, rat, plasma, po, female rats, p.o. 45 mg/kg, read-out: T max): 11 ± 12.3 h
- Vd/F ([1]; Sprague-Dawley, rat, plasma, po, female rats, p.o. 45 mg/kg, read-out: V d /F): 67.6 ± 47.6 L/kg
- AUC(0-inf) [1, 8]: 15600 ± 2100 ng·h/mL
- AUC(0-t) [1, 8]: 14900 ± 2190 ng·h/mL
- Cmax [1, 8]: 790 ± 200 ng/mL
- half-life [1, 8]: 8.83 ± 7.3 h
- bioavailability ([1]; Sprague-Dawley, rat, plasma, po, female rats, p.o. 90 mg/kg, read-out: F): 16.9%
- MRT last [1, 8]: 15.6 ± 5.82 h
- Tmax ([1]; Sprague-Dawley, rat, plasma, po, female rats, p.o. 90 mg/kg, read-out: T max): 7.58 ± 3.38 h
- Vd/F ([1]; Sprague-Dawley, rat, plasma, po, female rats, p.o. 90 mg/kg, read-out: V d /F): 86.3 ± 62.9 L/kg
- AUC(0-inf) [1, 9]: 4470 ± 1110 ng·h/mL
- AUC(0-t) [1, 9]: 3570 ± 1090 ng·h/mL
- Cmax [1, 9]: 30 ± 10 ng/mL
- half-life [1, 9]: 8 ± 2.4 h
- bioavailability ([1]; Sprague-Dawley, rat, plasma, po, male rats, p.o. 22.5 mg/kg, read-out: F): 28.7%
- MRT last [1, 9]: 11.2 ± 2.12 h
- Tmax ([1]; Sprague-Dawley, rat, plasma, po, male rats, p.o. 22.5 mg/kg, read-out: T max): 5.7 ± 2 h
- Vd/F ([1]; Sprague-Dawley, rat, plasma, po, male rats, p.o. 22.5 mg/kg, read-out: V d /F): 804 ± 267 L/kg
- AUC(0-inf) [1, 10]: 2040 ± 1330 ng·h/mL
- AUC(0-t) [1, 10]: 1960 ± 1320 ng·h/mL
- Cmax [1, 10]: 140 ± 100 ng/mL
- half-life [1, 10]: 8.11 ± 4.31 h
- bioavailability ([1]; Sprague-Dawley, rat, plasma, po, male rats, p.o. 45 mg/kg, read-out: F): 7.9%
- MRT last [1, 10]: 13.9 ± 1.17 h
- Tmax ([1]; Sprague-Dawley, rat, plasma, po, male rats, p.o. 45 mg/kg, read-out: T max): 7.7 ± 2.9 h
- Vd/F ([1]; Sprague-Dawley, rat, plasma, po, male rats, p.o. 45 mg/kg, read-out: V d /F): 768 ± 127 L/kg
- AUC(0-inf) [1, 11]: 8920 ± 960 ng·h/mL
- AUC(0-t) [1, 11]: 8760 ± 70 ng·h/mL
- Cmax [1, 11]: 550 ± 180 ng/mL
- half-life [1, 11]: 4.62 ± 3 h
- bioavailability ([1]; Sprague-Dawley, rat, plasma, po, male rats, p.o. 90 mg/kg, read-out: F): 17.6%
- MRT last [1, 11]: 12.8 ± 2.43 h
- Tmax ([1]; Sprague-Dawley, rat, plasma, po, male rats, p.o. 90 mg/kg, read-out: T max): 10.3 ± 2.7 h
- Vd/F ([1]; Sprague-Dawley, rat, plasma, po, male rats, p.o. 90 mg/kg, read-out: V d /F): 92.5 ± 91.7 L/kg
- bioavailability ([1]; Sprague-Dawley, rat, plasma, male rats, range over three oral doses, read-out: Oral bioavailability): 2.1 to 17.6%
- Tmax ([1]; Sprague-Dawley, rat, plasma, rats, both sexes, oral doses of Table 1, read-out: T max after oral absorption): 5.7 to 11 h
- CL/F ([1]; female rats, i.v. 10 mg/kg): 17.7 ± 4.17 mL/min/kg
- Vd/F ([1]; female rats, i.v. 10 mg/kg): 8.02 ± 6.13 L/kg
- CL/F ([1]; female, Sprague-Dawley, rat, plasma, po, 22.5 mg/kg, female rats, p.o. 22.5 mg/kg, read-out: CL/F (converted)): 117 mL/min/kg
- CL/F ([1]; female, Sprague-Dawley, rat, plasma, po, 45 mg/kg, female rats, p.o. 45 mg/kg, read-out: CL/F (converted)): 87.5 mL/min/kg
- CL/F ([1]; female, Sprague-Dawley, rat, plasma, po, 90 mg/kg, female rats, p.o. 90 mg/kg, read-out: CL/F (converted)): 80.8 mL/min/kg
- decrease of CL/F for female rats versus male rats ([1]; i.v. 10 mg/kg): 87%
- CL/F ([1]; male rats, i.v. 10 mg/kg): 33 ± 6.5 mL/min/kg
- Vd/F ([1]; male rats, i.v. 10 mg/kg): 24.34 ± 5.52 L/kg
- CL/F ([1]; male rats, p.o. 45 mg/kg, 45 mg/kg): 782.2 ± 345 mL/min/kg
- CL/F ([1]; male, Sprague-Dawley, rat, plasma, po, 22.5 mg/kg, male rats, p.o. 22.5 mg/kg, read-out: CL/F (converted)): 1160 mL/min/kg
- CL/F ([1]; male, Sprague-Dawley, rat, plasma, po, 45 mg/kg, male rats, p.o. 45 mg/kg, read-out: CL/F (converted)): 782 mL/min/kg
- CL/F ([1]; male, Sprague-Dawley, rat, plasma, po, 90 mg/kg, male rats, p.o. 90 mg/kg, read-out: CL/F (converted)): 196 mL/min/kg
- increase of C max for female rats versus male rats ([1]; p.o. 45 mg/kg): 364%
- accumulation of metapristone in blood, day 10 versus day 1 [2]: about 6 fold
- metapristone remained ([3]; female rat liver microsomes, 6 µM): 21.9%
- metapristone remained ([3]; female rat liver microsomes, 9 µM): 27.2%
- metapristone remained ([3]; female rat liver microsomes, 13.5 µM): 37.3%
- degradation of metapristone ([3]; female rat liver microsomes, 6, 9 and 13.5 µM): 35.1–48.9%
- metapristone remained ([3]; male rat liver microsomes, 6 µM): 10.2%
- metapristone remained ([3]; male rat liver microsomes, 9 µM): 14.2%
- metapristone remained ([3]; male rat liver microsomes, 13.5 µM): 29.6%
- degradation of metapristone ([3]; male rat liver microsomes, 6, 9 and 13.5 µM): 47.4–67.6%
- adhesion of HT-29 cells to endothelial cells (HT-29 cells): interrupted adhesion
